Measurements taken from paper PMC2837848 (Biochemistry, 2010).
Like-named read-outs stand apart in the source and are kept apart here.

Experiments:
[1] = target: QAPRTase (Salmonella typhimurium quinolinic acid phosphoribosyltransferase) (Salmonella enterica, UniProt P30012); experiment: steady-state kinetics; assay type: biochemical; conditions: read-out: WT
[2] = target: QAPRTase (Salmonella typhimurium quinolinic acid phosphoribosyltransferase) (Salmonella enterica, UniProt P30012, H189A); experiment: biochemical
[3] = target: QAPRTase (Salmonella typhimurium quinolinic acid phosphoribosyltransferase) (Salmonella enterica, UniProt P30012, R153A); experiment: biochemical

Structure (SMILES)	Km ([1]; co-substrate QA) [µM]	Kd [2] [µM]	Kd [3] [µM]	Km ([1]; co-substrate PRPP) [µM]
O=P(O)(O)OC[C@H]1O[C@H](OP(=O)(O)OP(=O)(O)O)[C@H](O)[C@@H]1O [PRPP, 5-phosphoribosyl 1-pyrophosphate]	57 ± 7	480 ± 75	~1000	
O=C(O)c1cccnc1C(=O)O [QA, quinolinic acid]				27 ± 6
